In article PMC3853091, “Antiproliferative effects of lanreotide autogel in patients with progressive, well-differentiated neuroendocrine tumours: a Spanish, multicentre, open-label, single arm phase II study” (BMC Cancer, 2013):

Experiments:
advanced pancreatic NET = conditions: patients with advanced pancreatic NET; cited from earlier work
From the text: Other treatment modalities that have shown promise as antiproliferative agents for advanced NET include mTOR or tyrosine kinase inhibitors. […] The combination of everolimus and octreotide LAR also stabilised tumour growth in patients with carcinoid NET [32].

[1] = Anti-lanreotide antibodies (radioimmunoprecipitation assay with confirmatory competition); type: in vivo, human (patients); conditions: RIPA
From the text: (§1) Safety analyses included AEs (coded using the Medical Dictionary for Regulatory Activities [MedDRA] version 11.1), vital signs, and serum haematology and biochemistry. Blood samples for analysis of lanreotide trough serum levels and, if applicable, for evaluation of the presence and specificity of anti-lanreotide antibodies were collected at screening and at weeks 8, 20, 32, 44, 56, 68 and 92, just before drug administration.
(§2) Tumour biomarkers, serum lanreotide concentrations and anti-lanreotide antibodies were analysed in a central laboratory. Serum CgA levels were determined using a radioimmunoassay (RIA) with coefficients of variation (CVs) of 6–10% (Cisbio International, Gif-sur-Yvette, France), and urinary 5-HIAA levels were measured using high-performance liquid chromatography with CVs of 4–6% (Bio-rad Laboratories GmbH, München, Germany). Circulating lanreotide concentrations were measured using a validated RIA with [^125I]-labelled lanreotide as a competitor for the quantification of lanreotide. During assay validation, the lower limit of quantification for lanreotide was 0.078 ng/mL and CVs were 2.3–13.6%. Anti-lanreotide antibodies were detected using a radioimmunoprecipitation assay (RIPA) with […] for immune-complex precipitation and [^125I]-labelled lanreotide as the tracer. Results were expressed as the percentage of precipitation. […]

[2] = Lanreotide trough serum levels (validated RIA with 125I-labelled lanreotide); type: in vivo, human (patients); conditions: human, subcutaneous, mean ± SD
Method: Efficacy (radiological, biochemical and clinical) and pharmacokinetic (PK) assessments were performed every 12 weeks and at the final study evaluation, 28 (±5) days after the final lanreotide dose. AEs and concomitant treatments were recorded at each 4-weekly treatment visit and at the final evaluation.
as §1
as §2, with “precipitation. During validation, the assay sensitivity was 1/3,200,000 using a rabbit polyclonal anti-lanreotide antibody and intra- and inter-assay precision values were <5.7% and <5.3%, respectively. The screening assay cutpoint was determined as the 95th percentile of the distribution obtained with pre-treatment samples from 22 patients from the study.” for “precipitation.”

SMILES	PFS (advanced pancreatic NET) [months]	Patients with anti-lanreotide antibodies detected ([1]; assessments after week 8, two patients, one of them temporarily) [%]	Anti-lanreotide antibodies in serum ([1]; week 8, all 25 patients tested)	level at 3360 h ([2]; week 20, after five injections of 120 mg every 28 days, n = 27, read-out: Steady-state trough serum lanreotide level) [ng/mL]	level at 5376 h ([2]; week 32, 120 mg every 28 days, read-out: Mean trough serum lanreotide level (maximum)) [ng/mL]	level at 15456 h ([2]; week 92, 120 mg every 28 days, read-out: Mean trough serum lanreotide concentration) [ng/mL]
CO[C@H]1C[C@@H]2CC[C@@H](C)[C@@](O)(O2)C(=O)C(=O)N2CCCC[C@H]2C(=O)O[C@H]([C@H](C)C[C@@H]2CC[C@@H](OCCO)[C@H](OC)C2)CC(=O)[C@H](C)/C=C(\C)[C@@H](O)[C@@H](OC)C(=O)[C@H](C)C[C@H](C)/C=C/C=C/C=C/1C [everolimus]	11.0	–	–	–	–	–
CC(C)[C@@H]1NC(=O)[C@H](CCCCN)NC(=O)[C@@H](Cc2c[nH]c3ccccc23)NC(=O)[C@H](Cc2ccc(O)cc2)NC(=O)[C@@H](NC(=O)[C@H](N)Cc2ccc3ccccc3c2)CSSC[C@@H](C(=O)N[C@H](C(N)=O)[C@@H](C)O)NC1=O [lanreotide]	–	7	negative	5.2 ± 2	6 ± 2.9	5.3 ± 2
CCN(CC)CCNC(=O)c1c(C)[nH]c(/C=C2\C(=O)Nc3ccc(F)cc32)c1C [sunitinib]	11.4	–	–	–	–	–
